Data taken from patent US20010014737A1, “Vitronectin receptor antagonist” (priority 1997, published 2001).

Biological target: T1, ανβ3 (the vitronectin receptor) (Homo sapiens, UniProt P05106+P06756)
T1 construct: Human placenta or human platelet ανβ3 (0.1-0.3 mg/mL) in buffer T; from tissue; host or cells: human placenta or human platelets
Assay: Solid-Phase [3H]-SK&F-107260 Binding to ανβ3 (inhibition of vitronectin binding)
Details: read-out: inhibits [3H]-SK&F-107260 binding to ανβ3 at a concentration
Description: Inhibition of vitronectin binding
Solid-Phase [^3H]-SK&F-107260 Binding to ανβ3: Human placenta or human platelet ανβ3 (0.1-0.3 mg/mL) in buffer T (containing 2 mM CaCl2 and 1% octylglucoside) was diluted with buffer T containing 1 mM CaCl2, 1 mM MnCl2, 1 mM MgCl2 (buffer A) and 0.05% NaN3, and then immediately added to 96-well ELISA plates (Corning, New York, N.Y.) at 0.1 mL per well. 0.1 - 0.2 μg of ανβ3 was added per well. The plates were incubated overnight at 4° C. At the time of the experiment, the wells were washed once with buffer A and were incubated with 0.1 mL of 3.5% bovine serum albumin in the same buffer for 1 hr at room temperature. Following incubation the wells were aspirated completely and washed twice with 0.2 mL buffer A. […]
The plates were incubated for 1 hr at room temperature. […] The receptors were solubilized with 0.1 mL of 1% SDS and the bound f^3H]-SK&F-107260 was determined by liquid scintillation counting with the addition of 3 mL Ready Safe in a Beckman LS Liquid Scintillation Counter, with 40% efficiency. Nonspecific binding of [^3H]-SK&F-107260 was determined in the presence of 2 μM SK&F-107260 and was consistently less than 1% of total radioligand input. […]

T1 sequence (P06756 31-889 limits assumed): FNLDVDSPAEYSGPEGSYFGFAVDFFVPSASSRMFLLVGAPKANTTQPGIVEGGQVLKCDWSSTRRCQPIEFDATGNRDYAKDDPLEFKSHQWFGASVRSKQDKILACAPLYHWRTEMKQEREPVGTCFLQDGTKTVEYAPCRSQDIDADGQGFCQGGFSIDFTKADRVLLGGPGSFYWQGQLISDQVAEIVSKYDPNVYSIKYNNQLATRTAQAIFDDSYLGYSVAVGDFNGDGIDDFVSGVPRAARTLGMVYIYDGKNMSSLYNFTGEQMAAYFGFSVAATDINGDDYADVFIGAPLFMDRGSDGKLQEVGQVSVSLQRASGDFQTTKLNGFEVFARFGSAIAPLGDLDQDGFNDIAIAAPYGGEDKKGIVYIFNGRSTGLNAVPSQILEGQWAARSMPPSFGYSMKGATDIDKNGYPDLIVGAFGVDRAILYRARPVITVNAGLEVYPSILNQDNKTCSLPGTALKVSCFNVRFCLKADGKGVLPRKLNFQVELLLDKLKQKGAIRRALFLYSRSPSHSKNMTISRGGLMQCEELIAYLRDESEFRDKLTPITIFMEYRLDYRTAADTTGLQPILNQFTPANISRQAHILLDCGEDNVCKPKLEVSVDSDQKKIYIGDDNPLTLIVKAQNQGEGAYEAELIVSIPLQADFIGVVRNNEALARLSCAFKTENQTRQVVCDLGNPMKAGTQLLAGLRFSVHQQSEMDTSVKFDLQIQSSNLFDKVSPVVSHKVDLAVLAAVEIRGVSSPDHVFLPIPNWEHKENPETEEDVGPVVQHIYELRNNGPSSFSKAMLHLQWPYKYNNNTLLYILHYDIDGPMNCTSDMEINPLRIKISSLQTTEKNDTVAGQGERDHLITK
T1 sequence (P06756 891-1048 partner limits assumed): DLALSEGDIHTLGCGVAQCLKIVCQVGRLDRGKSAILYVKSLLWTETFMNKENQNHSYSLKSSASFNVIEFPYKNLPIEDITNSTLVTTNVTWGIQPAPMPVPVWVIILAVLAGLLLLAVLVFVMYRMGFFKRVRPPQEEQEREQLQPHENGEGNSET
T1 sequence (P05106 27-788): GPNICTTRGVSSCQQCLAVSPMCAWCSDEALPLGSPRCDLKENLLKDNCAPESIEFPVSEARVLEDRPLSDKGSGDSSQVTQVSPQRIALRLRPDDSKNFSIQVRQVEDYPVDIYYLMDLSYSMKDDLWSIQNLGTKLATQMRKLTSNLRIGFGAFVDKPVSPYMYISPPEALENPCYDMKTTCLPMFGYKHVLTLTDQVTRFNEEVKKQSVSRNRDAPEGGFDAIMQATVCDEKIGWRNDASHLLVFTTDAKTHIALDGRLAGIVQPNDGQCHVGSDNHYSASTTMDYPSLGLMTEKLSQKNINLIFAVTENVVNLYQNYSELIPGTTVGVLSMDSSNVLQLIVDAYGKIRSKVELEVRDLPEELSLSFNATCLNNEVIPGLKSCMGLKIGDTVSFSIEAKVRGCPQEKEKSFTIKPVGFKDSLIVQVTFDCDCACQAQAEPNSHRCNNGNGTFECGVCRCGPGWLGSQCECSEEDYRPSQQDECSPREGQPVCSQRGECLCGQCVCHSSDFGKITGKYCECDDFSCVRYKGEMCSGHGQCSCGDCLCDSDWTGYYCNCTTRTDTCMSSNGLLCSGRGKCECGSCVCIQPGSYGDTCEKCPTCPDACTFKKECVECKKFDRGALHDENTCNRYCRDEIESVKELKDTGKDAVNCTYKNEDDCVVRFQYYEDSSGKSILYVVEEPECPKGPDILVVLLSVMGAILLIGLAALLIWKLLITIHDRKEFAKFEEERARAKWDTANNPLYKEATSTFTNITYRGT

Which IC50 does the source give for Cc1ccnc(NCCCOc2ccc3c(c2)CN(Cc2ccc(C(F)(F)F)cc2)C(=O)[C@H](CC(=O)O)C3)c1 [Example 1, (S)-8-[3-(4-methylpyridin-2-ylamino)-1-propyloxy]-3-oxo-2-[4-(trifluoromethyl)benzyl]-2,3,4,5-tetrahydro-1 H-2-benzazepine-4-acetic acid] here?
The IC50 was ~3 nM.
